The subject of one data set is α-adrenoceptor. Description: α-Adrenoceptor antagonism on the guinea pig aortic strip. The conditions noted are these: for α-blockade pA2: Table 4; for α-adrenoceptor antagonism: result in words; for pA2 (α-adrenoceptor antagonism): guinea pig aortic strip. The source says:
Carried out on the guinea pig aortic strip [Furchgott and Bhadrakom (1953) J. Pharmac. exp. Ther. 108, 129-143] by the method of Alps et al [Br. J. Pharmac. 1972 44, 52-62].

A short description of a further data set: Antiarrhythmic activity. The settings on record: result in words.
The next data set addresses T1, histamine (Cavia porcellus, UniProt P31389).
T1 construct: from tissue
Description: Antihistamine activity by the method of Alps et al. The settings on record: for antihistamine activity: result in words.

For the next data set, the system named is blood pressure. Description: Tests for action on the cardiovascular system: hypotensive activity (activity in method 1, rats or cats, or method 2), reported in words. In kind it is in vivo, rat, cat. The conditions noted are these: standard test procedure, result in words. The method, boiled down: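 Method 1: pentobarbitone-anaesthetised cats, test compounds i.v. at 0.1-25.6 mg/kg, aortic blood pressure, heart rate and left ventricular pressure recorded. Method 2: renal hypertensive rats (figure-8 ligature plus contralateral nephrectomy, 6 weeks), dosed IP or orally; systolic pressure by tail plethysmography before and 2 and 24 h post-dose versus controls.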

The test system of data set [1] is blood pressure and heart rate. Put plainly: Method 1 (rat): hypotensive activity in anaesthetised rats, i.v. The conditions noted are these: for minimal effective dose: Rattus norvegicus, iv; for Significant bradycardia (dose; decrease in heart rate of more than 30%): anaesthetised rat, i.v., cumulative dose.
Description: Rats were anaesthetised with pentobarbitone sodium (60 mg/kg) and the jugular vein, trachea and carotid artery were cannulated. […] A decrease in heart rate of more than 30% from control values was considered to be significant bradycardia.
The next data set deals with systolic pressure. Description: Method 2: anti-hypertensive activity in renal hypertensive rats. In kind it is in vivo, rat. The settings on record: for Pressure reduced to: hypertensive rat. As for the experimental part: Method 2 (hypertensive rats)
Male or female rats are rendered hypertensive by applying a figure of 8 ligature around one kidney and contralateral nephrectomy. Blood pressure stabilises at a hypertensive level after 6 weeks. Systolic pressure is measured indirectly using a Decker Caudal Plethysmograph A control group of rats is run with each group treated with drug. Each group usually consists of six rats. Drugs are usually administered by the IP or oral routes. Pressures are read prior to drug administration and at two and 24 hours thereafter.
Falls in systolic blood pressure 2 hr after an oral dose of 40 mg/kg: >50
mm, +++; 50-30 mm, ++; 30-15 mm, +; <15 mm, ±. g Oral dose of 75 mg/kg
h Oral dose of 10 mg/kg. i Oral dose of 2.5 mg/kg.

Data set [2] in a line: Anti-inflammatory activity. The settings on record: result in words. In kind it is in vivo.
A further data set in a line: Depressant activity. In kind it is in vivo. The conditions noted are these: result in words.
Data set [3] concerns blood pressure and heart rate. Put plainly: Method 1 (cat): blood pressure, heart rate and left ventricular pressure in anaesthetised cats, i.v. In kind it is in vivo. The conditions noted are these: 3.2 mg/kg. Here is the method: Cats were anaesthetised with pentobarbitone sodium (30 mg/kg) and the cephalic vein, femoral and carotid arteries and trachea were cannulated. The carotid cannula was introduced into the left ventricle and the femoral cannula into the aorta. Blood pressure and heart rate were recorded from the aortic cannula and left ventricular pressure from the carotid cannula. The test compunds were administered intravenously (0.1-25.6 mg/kg).

The next data set concerns oxotremorine. Description: Antioxotremorine activity. In kind it is in vivo. The conditions noted are these: result in words.
A further data set in a line: Anti-convulsant activity. In kind it is in vivo. The settings on record: result in words.
For a further data set, the system named is mouse. Description: Acute toxicity (LD50) in the mouse. The settings on record: result in words.
Data set [4] is described as follows: Acute toxicity (LD50) in the mouse. The settings on record: in vivo.
Where [5] appears, read: Table 4, read-out: Antihistamine pA2 (converted).
Setting [6] is: 0.25 h, read-out: Hypotensive Activity.
Setting [7] is: pA2 (antihistamine activity), Table 2.
The mark [8] stands for this setting: read-out: Significant hypotension (dose; fall of 30 mm mercury or more in diastolic pressure).

Read-outs that look alike come from different tables or passages of the source. Where only a bound is given, the exact number is not on record here.

T1 sequence (P31389 whole entry): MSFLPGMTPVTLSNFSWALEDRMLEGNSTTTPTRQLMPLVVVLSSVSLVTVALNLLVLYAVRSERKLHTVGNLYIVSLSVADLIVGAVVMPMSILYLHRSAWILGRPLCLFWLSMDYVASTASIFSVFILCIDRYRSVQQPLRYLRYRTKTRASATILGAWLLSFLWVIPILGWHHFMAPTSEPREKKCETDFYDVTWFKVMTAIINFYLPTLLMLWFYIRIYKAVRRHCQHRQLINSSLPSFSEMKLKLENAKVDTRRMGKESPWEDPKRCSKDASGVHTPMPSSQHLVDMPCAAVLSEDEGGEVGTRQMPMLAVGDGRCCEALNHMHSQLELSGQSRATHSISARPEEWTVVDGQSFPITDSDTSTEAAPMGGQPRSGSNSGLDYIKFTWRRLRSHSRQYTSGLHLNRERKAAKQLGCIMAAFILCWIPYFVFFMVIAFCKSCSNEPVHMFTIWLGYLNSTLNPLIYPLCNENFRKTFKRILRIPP

For the molecule `O=C(NC1CCN(CCc2ccc3ccccc3c2)CC1)c1ccccc1` [Example 13, 1-[2-(2-Naphthyl)ethyl]-4-benzamidopiperidine], in the data set with α-adrenoceptor, the “α-blockade pA2” value turned out to be 7.4 and the α-adrenoceptor antagonism entry is recorded as “α-adrenoceptor antagonism”. The antiarrhythmic activity result in “Antiarrhythmic activity” is “antiarrythmic activities”. Moreover, the Kb at histamine (setting [5]) was 25.1 nM. Also, the antihistamine activity entry at histamine was “antihistamine”. Moreover, the hypotensive activity entry in the data set with blood pressure is listed as “hypotensive activity”. Moreover, the minimal effective dose in [1] (setting [6]) is 1.6 to 3.2 mg/kg.

Consider `O=C(CCCN1CCC(NC(=O)c2ccccc2)CC1)c1ccc(F)cc1` [Example 19, 1-[4-(4-Fluorophenyl)-4-oxobutyl]-4-benzamidopiperidine], for which the “Pressure reduced to” value in the data set on systolic pressure (10 mg/kg p.o., from 188 mmHg) came out at 138 mmHg. For the same molecule, in [2], the anti-inflammatory activity entry is “antiinflammatory activity”. For the same molecule, in the data set with α-adrenoceptor, the “α-blockade pA2” value was found to be 7.5 and the “pA2 (α-adrenoceptor antagonism)” value was determined as 7.4. Further, the depressant activity entry in “Depressant activity” was “depressant”. The Kb on histamine (setting [7]) is 2.51 nM. For the same molecule, the antihistamine activity entry on histamine is “antihistamine”. Moreover, in data set [3], the “Significant lowering of blood pressure” value was 38 mmHg, the cardiac effort index entry is reported as “lowered”, the cardiac output result is reported as “decreased” and the heart rate lowered is reported as 28.9%. Moreover, the “myocardial contractile force decreased” value in data set [3] was 25.7%. The hypotensive activity entry with blood pressure was “marked hypotensive activity”. Further, in data set [1] (setting [6]), the minimal effective dose is 0.8 mg/kg. In addition, the minimal effective dose in [1] (setting [8]) fell in the range of 0.8 to 1.6 mg/kg. Further, the “Significant bradycardia (dose; decrease in heart rate of more than 30%)” value in [1] is reported as 1.6 mg/kg.

For the molecule `O=C(NC1CCN(CC(O)c2ccccc2)CC1)c1ccccc1` (stereo not drawn) [Example 20, 1-(2-Hydroxy-2-phenylethyl)-4-benzamidopiperidine], the “α-blockade pA2” value with α-adrenoceptor worked out at 6.6. The antihistamine activity result at histamine is “antihistamine”. The antioxotremorine activity entry in the data set on oxotremorine was “antioxotremorine activity”. Moreover, the hypotensive activity result in the data set on blood pressure is “hypotensive activity”. In addition, the minimal effective dose in data set [1] (setting [6]) was 6.4 to 12.8 mg/kg.

As to `O=C(NC1CCN(CC(O)c2ccc(Cl)c(Cl)c2)CC1)c1ccccc1` (stereo not drawn) [Example 36, 1-[2-(3,4-Dichlorophenyl)-2-hydroxyethyl]-4-benzamidopiperidine], the hypotensive activity result in the data set with blood pressure was “hypotensive”. For the same molecule, the anti-convulsant activity entry in the data set “Anti-convulsant activity” is “anti-convulsant activities”. Moreover, the minimal effective dose in data set [1] (setting [6]) was under 30 mg/kg.

In the case of `O=C(CCCN1CCC(NC(=O)c2ccccc2)CC1)c1ccccc1` [Example 43, 4-Benzamido-1-(4-phenyl-4-oxobutyl)piperidine], the “Anti-hypertensive Activity” value in the data set on systolic pressure (Table 3, fall in systolic blood pressure 2 hr after oral dose of 40 mg/kg) was “+ ++”. In addition, in the data set with systolic pressure (40 mg/kg p.o., from 174 mmHg), the “Pressure reduced to” value amounted to 122 mmHg. Moreover, in the data set with α-adrenoceptor, the “pA2 (α-adrenoceptor antagonism)” value is given as 7.7 and the α-adrenoceptor antagonism result was “α-adrenoceptor antagonist”. For the same molecule, the antiarrhythmic activity result in the data set “Antiarrhythmic activity” is “antiarrythmic activities”. For the same molecule, the Kb at histamine (setting [5]) was 0.251 nM. Besides, the Kb at histamine (setting [7]) was 0.316 nM. Further, the antihistamine activity entry on histamine was “antihistamine”. Also, in data set [3], the “Significant lowering of blood pressure” value turned out to be 52 mmHg, the cardiac effort index result is recorded as “lowered”, the cardiac output result is on record as “lowered” and the heart rate lowered is listed as 35%. In data set [3], the “myocardial contractile force decreased” value is 33%. In the data set on blood pressure, the hypotensive activity result is reported as “marked hypotensive activity”. Besides, the minimal effective dose in data set [1] (setting [6]) turned out to be 0.8 mg/kg. In [1] (setting [8]), the minimal effective dose lay in the range of 0.8 to 1.6 mg/kg. Also, in [1], the “Significant bradycardia (dose; decrease in heart rate of more than 30%)” value was in the range of 0.8 to 1.6 mg/kg.

On to `O=C(NC1CCN(CCc2ccc(Cl)cc2)CC1)c1ccccc1` [Example 48, 4-Benzamido-1-[2-(p-chlorophenyl)ethyl]piperidine], for which the hypotensive activity result in the data set on blood pressure was “hypotensive activity”. For the same molecule, the anti-convulsant activity result in the data set “Anti-convulsant activity” is listed as “anti-convulsant activity”. For the same molecule, the minimal effective dose in data set [1] (setting [6]) was in the range of 6.4 to 12.8 mg/kg.

A word on the LD50: it is the dose expected to kill half of the subjects tested. Read a low LD50 as a more toxic substance. As to `O=C(CCCN1CCC(NC(=O)c2ccccc2)CC1)c1ccc(O)cc1` [Example 63, 4-Benzamido-1-[4-(4-hydroxyphenyl)-4-oxobutyl]piperidine], in the data set with α-adrenoceptor, the “α-blockade pA2” value amounted to 7.0 and the α-adrenoceptor antagonism entry was “α-adrenoceptor antagonism”. In addition, the Kb on histamine (setting [5]) is 1.26 nM. Besides, in the data set with mouse, the toxicity result is listed as “remarkably low toxicity”. In data set [4] (ip), this molecule yielded a 50% lethal dose (LD50) of 1630 mg/kg and a median lethal dose (LD50) at 24 h of over 4000 mg/kg. In data set [4] (po), this molecule came in with an LD50 of over 4000 mg/kg. The hypotensive activity result in the data set with blood pressure was “good hypotensive activity”. Moreover, in [1] (setting [6]), the minimal effective dose was determined as 25.6 mg/kg.
